Where a name gives a salt, the structure may show the parent alone. Read-outs that look alike come from different tables or passages of the source.
Assays:
[1] = target: T1, JARID1B (Homo sapiens, UniProt Q9UGL1); experiment: FLAG-JARID1B histone demethylase assay with AlphaScreen detection (HTS and dose response); assay type: biochemical; conditions: for inhibition at 20 µM: read-out: Inhibitory effect (percent); for Assay − Artifact Signal (percent): assay signal minus artifact signal; for Assay Signal (percent) / Validation result of HTS active: effect of the compound in the JARID1B AlphaScreen demethylase assay: validation of HTS actives; for Assay Signal (percent): effect of compound in JARID1B AlphaScreen assay; for Validation result of HTS active: effect of the compound in the JARID1B AlphaScreen demethylase assay: total signal before subtraction of artifact signal;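 on Assay Signal (percent): compound tested at 20 µM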;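 on Assay − Artifact Signal (percent): compound tested at 20 µM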;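 on all read-outs here: FLAG-tagged JARID1B at 4 nM acting on a biotinylated H3K4me3 peptide, demethylation read by AlphaScreen luminescence, with hits checked against bio-H3K4me2 without enzyme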
T1 construct: The FLAG tagged full length JARID1B enzyme was expressed in Sf21 insect cells using FLAG-JARID1B baculoviruses; FLAG (N); made in house; host or cells: Sf21 insect cells (baculovirus)

[2] = AlphaScreen counterscreen against bio-H3K4me2 peptide in the absence of enzyme (artifact signal); conditions: for Artifact Signal (percent): effect of the compound when incubated with bio-H3K4me2 peptide (counterscreen, no enzyme);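 on all read-outs here: counterscreen run without enzyme against bio-H3K4me2 peptide to remove false positive hits from the JARID1 demethylase AlphaScreen screen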
[3] = high-throughput screen, compound 20 μM, standard demethylase conditions (10 μM α-KG, 50 μM Fe (II))
[4] = dose response at 15 μM (low) Fe (II), read-out: IC50 (μM) low Fe (II)
[5] = dose response at 50 μM (high) Fe (II), read-out: IC50 (μM) high Fe (II)
[6] = high-throughput screen, compound 20 μM, IDs marked *: additional hits under reaction condition with 1 mM α-KG

T1 sequence (Q9UGL1 whole entry): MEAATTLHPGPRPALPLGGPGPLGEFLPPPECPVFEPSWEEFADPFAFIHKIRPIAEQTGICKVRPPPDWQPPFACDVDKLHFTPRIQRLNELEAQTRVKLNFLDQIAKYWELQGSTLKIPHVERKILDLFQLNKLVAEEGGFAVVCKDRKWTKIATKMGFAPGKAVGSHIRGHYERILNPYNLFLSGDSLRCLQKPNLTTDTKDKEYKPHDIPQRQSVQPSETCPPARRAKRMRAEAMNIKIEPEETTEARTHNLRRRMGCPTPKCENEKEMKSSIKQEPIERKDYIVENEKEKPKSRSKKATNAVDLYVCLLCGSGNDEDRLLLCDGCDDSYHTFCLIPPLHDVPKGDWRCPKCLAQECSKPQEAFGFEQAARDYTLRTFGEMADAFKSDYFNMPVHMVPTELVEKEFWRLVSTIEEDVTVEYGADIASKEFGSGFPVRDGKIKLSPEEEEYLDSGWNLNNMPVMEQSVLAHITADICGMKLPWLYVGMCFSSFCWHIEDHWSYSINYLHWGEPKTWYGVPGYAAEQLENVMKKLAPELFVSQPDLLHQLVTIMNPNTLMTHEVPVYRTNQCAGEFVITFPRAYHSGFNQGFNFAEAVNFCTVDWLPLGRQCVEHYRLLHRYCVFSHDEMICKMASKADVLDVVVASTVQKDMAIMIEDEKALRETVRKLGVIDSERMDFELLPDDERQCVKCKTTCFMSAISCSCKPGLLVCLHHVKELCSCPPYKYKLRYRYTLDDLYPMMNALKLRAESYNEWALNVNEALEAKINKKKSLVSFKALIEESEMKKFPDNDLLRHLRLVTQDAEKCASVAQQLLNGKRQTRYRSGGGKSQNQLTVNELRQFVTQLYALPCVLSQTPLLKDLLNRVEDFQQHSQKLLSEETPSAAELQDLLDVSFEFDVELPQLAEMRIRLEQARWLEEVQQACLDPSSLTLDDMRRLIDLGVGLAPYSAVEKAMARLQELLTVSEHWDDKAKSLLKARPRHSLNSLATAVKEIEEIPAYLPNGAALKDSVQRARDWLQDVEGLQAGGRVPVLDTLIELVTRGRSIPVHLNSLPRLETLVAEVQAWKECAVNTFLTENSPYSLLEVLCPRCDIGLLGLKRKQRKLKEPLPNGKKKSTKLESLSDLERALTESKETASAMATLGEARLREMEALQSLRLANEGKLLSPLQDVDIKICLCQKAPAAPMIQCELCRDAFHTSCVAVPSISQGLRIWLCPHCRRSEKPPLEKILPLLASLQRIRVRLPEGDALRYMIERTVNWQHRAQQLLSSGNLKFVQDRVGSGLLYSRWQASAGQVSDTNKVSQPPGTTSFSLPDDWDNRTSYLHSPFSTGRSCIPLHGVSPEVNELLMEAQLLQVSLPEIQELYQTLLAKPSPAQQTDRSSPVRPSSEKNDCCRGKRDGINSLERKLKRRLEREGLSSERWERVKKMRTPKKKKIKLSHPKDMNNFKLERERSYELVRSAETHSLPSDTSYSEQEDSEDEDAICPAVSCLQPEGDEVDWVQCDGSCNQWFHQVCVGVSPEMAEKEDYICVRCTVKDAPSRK

Work on `Cc1noc2c1C(c1ccc(O)c(O)c1)C1=C(CCCC1=O)N2` (stereo not shown) [YU185529] yielded an inhibition at 20 µM [1, 3] of 61.5%.
`O=C(Nc1ccc(N2Cc3ccccc3OC(c3ccccc3)C2)c(C(=O)O)c1)c1ccccc1F` (stereo not shown) [YU208215] gave an inhibition at 20 µM [1, 3] of 44.6%.
`O=c1c2cc(O)c(O)cc2oc2cc(O)c([C@@H]3O[C@H](CO)[C@@H](O)[C@H](O)[C@H]3O)c(O)c12` [YU155356, MANGIFERIN, reference compound] showed an inhibition at 20 µM [1, 3] of 98.8%.
With `Cl.Oc1cc2c(cc1O)[C@H]1c3ccccc3CN[C@@H]1CC2` [YU221065, Benzo[a]phenanthridine-10,11-diol, 5,6,6a,7,8,12b-hexahydro-, trans-, reference compound] the “Assay − Artifact Signal (percent)” value [1] was 55.73%, the inhibition at 20 µM [1, 3] was 49.1% and the “Assay Signal (percent)” value [1] was 59.95%.
With `Cc1ccccc1C(OCCN(C)C)c1ccccc1` (stereo not shown) [YU033938, ORPHENADRINE CITRATE, reference compound] the “Artifact Signal (percent)” value [2] was 0.79%.
In the case of `Cn1c(/C(C#N)=C/c2ccncc2)nc2ccccc21` [ChemBridge 6339039], the IC50 [1, 4] is reported as 1.8 µM and the IC50 [1, 5] is reported as 1.31 µM.
For `Cn1nnnc1SCC1=C(C(=O)O)N2C(=O)[C@H](NC(=O)C(O)c3ccccc3)C2SC1` (stereo in doubt) [YU034265, CEFAMANDOLE SODIUM, reference compound], the inhibition at 20 µM [1, 6] was 40.5%.
Compound `Cn1c(=O)n(C)c2cc(S(=O)(=O)NNc3ccccc3)ccc21` [YU152899] has an inhibition at 20 µM [1, 3] of 49.6%.
In the case of `CC(C)(O)[C@@H]1[C@H]2OC(=O)[C@@H]1[C@]1(O)C[C@H]3O[C@]34C(=O)O[C@H]2[C@]14C` [YU033619, PICROTIN, reference compound], the inhibition at 20 µM [1] is reported as 46.9% and the “Validation result of HTS active: effect of the compound in the JARID1B AlphaScreen demethylase assay” value (shortened to “Validation result of HTS active”) [1] is reported as −12.66.
For `C[CH2][Hg][S]c1ccccc1C(=O)[O-]` [YU034023, THIMEROSAL, reference compound], the “Artifact signal: effect of the compound when it is incubated with bio-H3K4me2 peptide” value ([2]; counterscreen, bio-H3K4me2 peptide, no enzyme) was −5.81.
With `O=c1ccc2cc(O)c(O)cc2o1` [YU155534, ESCULETIN, reference compound] the “Artifact Signal (percent)” value [2] was 6.30%.
For `OC1CCCCC1N1CCC(c2ccccc2)CC1` (stereo not shown) [YU034447, VESAMICOL HYDROCHLORIDE, reference compound], the “Assay − Artifact Signal (percent)” value [1] was 8.85%, the inhibition at 20 µM [1] was 40.5% and the “Assay Signal (percent)” value [1] was 8.67%.
With `CC[C@H]1OC(=O)[C@H](C)[C@@H](OC2CC(C)(OC)C(O)C(C)O2)[C@H](C)[C@@H](S2(C)(=O)NC3C(N(C)C)CC(C)NC32)[C@](C)(O)C[C@@H](C)/C(=N\C)[C@H](C)[C@@H](O)[C@]1(C)O` (stereo partly shown) [YU035181] the “Artifact Signal (percent)” value [2] was 4.88%.
With `O=c1c(O)c(-c2ccc(O)c(O)c2)oc2c(O[C@@H]3O[C@H](CO)[C@@H](O)[C@H](O)[C@H]3O)c(O)cc(O)c12` [YU155353, GOSSYPIN, reference compound] the inhibition at 20 µM [1, 3] was 89%.
In the case of `O=C1c2c(O)ccc(O)c2C(=O)c2c(NCCNCCO)ccc(NCCNCCO)c21` [YU034420, MITOXANTHRONE HYDROCHLORIDE, reference compound], the “Assay − Artifact Signal (percent)” value [1] is reported as 10.55%, the inhibition at 20 µM [1, 3] is reported as 101% and the “Assay Signal (percent)” value [1] is reported as 99.87%.
With `O=c1c2ccccc2[se]n1-c1ccccc1` [Ebselen, ebselen, reference compound] the IC50 ([1]; Fe (II) concentration not stated, read-out: IC50 against JARID1B) was ~6 µM, the IC50 [1, 4] was 7.63 µM and the IC50 [1, 5] was 5.17 µM.
With `CC(=O)O[C@H]1C[C@@]2(C)[C@@H](C[C@@H](O)[C@H]3[C@@]4(C)CC[C@@H](O)[C@@H](C)[C@@H]4CC[C@@]32C)/C1=C(\CCC=C(C)C)C(=O)O` [YU033837, FUSIDIC ACID, reference compound] the inhibition at 20 µM [1, 3] was 63.1% and the “Validation result of HTS active” value [1] was 0.93.
With `Cc1cc(/C=C/c2ccc3cc(N(C)C)ccc3[n+]2C)c(C)n1-c1ccccc1` [YU034547, PYRVINIUM PAMOATE, reference compound] the inhibition at 20 µM [1, 3] was 64.4% and the “Validation result of HTS active” value [1] was −3.96.
`COc1cccc2c1C(=O)c1c(O)c3c(c(O)c1C2=O)C[C@@](O)(C(C)=O)C[C@@H]3O[C@H]1C[C@H](N)[C@H](O)[C@H](C)O1` [YU155188, DAUNORUBICIN, reference compound] showed an inhibition at 20 µM [1, 3] of 74.7%.
For `c1ccc2c(c1)CCCC2C1=NCCN1` (stereo not shown) [YU034020, TETRAHYDROZOLINE HYDROCHLORIDE, reference compound], the inhibition at 20 µM [1, 6] was 99.2% and the “Validation result of HTS active” value [1] was −5.13.
Work on `Cc1cc(C)nc(N(C#N)C(=S)N(C)C)n1` [YU145655] yielded an inhibition at 20 µM [1, 3] of 54.7%.
